Source: paper PMC4449000, “Acyclovir Has Low but Detectable Influence on HLA-B*57:01 Specificity without Inducing Hypersensitivity” (PLoS ONE, 2015)
Where “and” joins values, the source holds several entries; their conditions need not be identical. Equal entries are not always repeated. Structures can show the parent of a compound that is named as a salt. Where two headings read alike, the source gives them in different places. Ends that are not written are not given here.

Tests used:
purified HLA-B*57:01 [1] = target: T1, purified HLA-B*57:01 (Homo sapiens, UniProt P01889, D201E/D98Y/E176V/E187L/E204Q/E69M/E70A/G107R/I90N/K202T/L105A/L119I/N104I/N87E/Q89R/Q94S/R106L/R155S/R180L/R86G/S101N/S121V/S35A/S48A/T118I/V36M/Y140S/Y91M); assay: HLA binding assay: inhibition of binding of a radiolabeled standard peptide to purified HLA-B*57:01 (competition); conditions: for number of the 7 peptides ending in I with increased affinity for HLA-B*57:01: 7 individual peptides with I at P9, two independent runs in triplicates (Fig 5); for IC50: Mean ± SEM, S5 Fig, unit inferred
HLA-B*57:01 = HLA-B*57:01 (Homo sapiens, UniProt P01889, D201E/D98Y/E176V/E187L/E204Q/E69M/E70A/G107R/I90N/K202T/L105A/L119I/N104I/N87E/Q89R/Q94S/R106L/R155S/R180L/R86G/S101N/S121V/S35A/S48A/T118I/V36M/Y140S/Y91M); assay: Direct binding of radiolabeled […] to HLA-B*57:01 without competitor peptide; conditions: increasing doses of drug, four experimental runs in triplicates (Fig 6A)
Protocol: (§1) Quantitative assays to measure the binding affinity of peptides to purified HLA-B*57:01 molecules based on the inhibition of binding of a radiolabeled standard peptide were performed as previously described. Briefly, 1–10 nM of radiolabeled peptide was co-incubated at room temperature with 1 nM to 1 μM purified HLA-B*57:01 in the presence of 1–3 μM human β2-microglobulin (Scripps Laboratories; San Diego, CA) and a mixture of protease inhibitors. After a 2-day incubation, binding of the radiolabeled peptide to the MHC class I molecule was determined by capturing MHC/peptide complexes on Greiner Lumitrac 600 microplates (Greiner Bio-One; Monroe, North Carilina) coated with the W6/32 antibody, and measuring bound counts per minute (cpm) using the TopCount microscintillation […] counter (PerkinElmer; Waltham, Massachusetts). For competition assays, the concentration of peptide yielding IC50 of the binding of the radiolabeled peptide was calculated. Peptides were typically tested at six different concentrations covering a 100,000-fold dose range.
(§2) For direct binding studies in the absence of a competitor peptide, a purified peptide with sequence […] was ordered from Synthetic Biomolecules (San Diego, CA) and its affinity for either HLA-B*57:01 or HLA-B*58:01 was tested in the presence or absence of abacavir, or acyclovir, in a dose dependent manner.

HLA-B*58:01 = HLA-B*58:01 (Homo sapiens, UniProt P01889, A329T/C349S/D201E/D98Y/E176V/E187L/E204Q/E69T/G107R/I218V/I90N/K202T/L105A/L119I/N104I/N87E/Q89R/Q94S/R106L/R155S/R180L/R86G/S101N/S121R/S35A/S48A/T118I/V127L/V306I/V36M/Y140S/Y91M); assay: Direct binding of radiolabeled […] to HLA-B*58:01 (control); conditions: control allele (Fig 6B)
Protocol: as §1, §2

[2] = system: HLA-B*57:01 positive PBMC; assay: Culture and detection of drug responsive T cells (intracellular IFN-γ, flow cytometry); assay type: cell-based, human; conditions: 10 μg/mL drug, 14 day culture, restimulation with drug treated C1R.B57; two of two donors
Protocol: Drug responsive short-term T cell lines were produced from cryopreserved PBMC, as previously described. […] From day 3 and every 3 days, 50% of media was replaced and 20 U/ml of recombinant human interleukin (IL)-2 (Peprotech) was added to cultures. […] Samples were surface labeled for CD4 and CD8 expression on ice and then fixed and permeabilized for the detection of intra-cellular IFN-γ, as previously described. Abacavir responsive cells were then detected using flow cytometry (Gallios; Beckman Coulter). Lymphocytes were gated on the basis of forward and side scatter properties. The lymphocyte gate was then gated for CD8, but not CD4, positivity using a Boolean logic gate. The frequency of CD8 and IFN-γ double positive cells was determined using Kaluza software (Beckman Coulter).

purified HLA-B*57:01 [3] = target: T1, purified HLA-B*57:01; conditions: previously observed; cited from earlier work
[4] = system: HLA-B*57:01 single allele transfected 721.221 cell line; conditions: abacavir; not measured in this paper, no reference printed at b57; cited from earlier work
[5] = system: HLA-B*57:01 single allele transfected 721.221 cell line; assay: Peptide elution and LC-MS identification from drug-treated cells; assay type: cell-based, human
Protocol: For elution studies, 4–5 x 10^9 cells from the HLA-B*57:01 single allele transfected 721.221 cell line were used. Treated cells were incubated with acyclovir at a concentration of 500 μg/mL for 14 hr at 37°. Cells were harvested and stored at -80°C. Upon thawing, cells were lysed using cell lysis buffer in the presence of protease inhibitors. The lysate was centrifuged at 100,000 x g for 1 hr and the supernatant was collected and passed through a 0.8/0.2 μm filter (VWR International, TX). The filtrate was collected and passed through a sepharose CL-4B (Sigma-Aldrich, MO) column to capture any remaining materials in the lysate that may clog the antibody columns. The filtrate was then passaged through a column packed with protein A sepharose (PAS) beads (sigma) coated with MK-D6 (MTCC HB-3, VA) antibody which served to as an irrelevant antibody (specific for the mouse class II molecule, I-A^d) used to derive a negative control peptide extract. Next, the filtrate was passed through a second PAS column coated with W6/32 antibody (MTCC HB-95) which captures HLA class I molecules. The columns were washed sequentially with: 1) 2 column volumes of lysis buffer, 2) 20 column volumes of 20 mM Tris-HCL (pH 8.0, 150 mM NaCl), 3) 20 column volumes of 20 mM Tri-HCl (pH 8.0, 1.0 M NaCl), and 4) 20 column volumes of 20 mM Tris-HCl (pH 8.0), and then eluted with 4 column volumes of 0.2 M glacial acetic acid. The eluted peptides were then collected and spun at 3,500g at 4°C until 98% of the solution had passed through Millipore ultrafiltration units with a 3,500 Da cut-off (EMD Millipore, MA) to exclude β-2 microglobulin. The filtrate was then collected and concentrated in vacuo for LC-MS analysis.
Peptides were analyzed by nanoflow high-performance liquid chromatography (HPLC)/microelectrospray ionization, coupled directly to a Thermo Fisher Scientific FT-ICR mass spectrometer, equipped with a home-built, front-end electron transfer dissociation (FETD) source. An aliquot of peptide sample was taken to dryness in a vacuum concentrator. Peptides were amidated in a solution that contained 1M histamine-HCl (20 μL) in 1M pyridine-HCl buffer and 0.1M EDC in pyridine-HCl buffer. The solution was sonicated for 3 hours before being dried in a vacuum concentrator and then reconstituted in 0.1% acetic acid.
Data were acquired as previously described. In brief, a pre-column, loaded with 5×10^7 to 2×10^8 cell equivalents of HLA-B*57:01 eluted peptides was connected with polytetrafluoroethylene tubing (0.06-in. o.d. and 0.012-in. i.d.; Zeus Industrial Products) to the end of an analytical HPLC column (360 μm o.d.×50 μm i.d.) containing 6–7 cm of C18 reverse-phase packing material (5-μm particles; YMC). […]

Molecule | number of the 7 peptides ending in I with increased affinity for HLA-B*57:01 (purified HLA-B*57:01 [1]) | largest change / increase of peptide binding affinity (IC50) for HLA-B*57:01 in the presence of the drug (purified HLA-B*57:01 [1]; individual peptides, summary statement) | increase in the level of bound peptide […] on HLA-B*57:01 (HLA-B*57:01; radiolabeled […]) | effect of drug on binding of […] to HLA-B*58:01 (HLA-B*58:01; radiolabeled […]) | drug specific CD8+/IFN-γ+ T-cell response in PBMC primed and restimulated with the same drug [2] | increase in affinity for I and V peptides in the presence of abacavir (PSCPL) (purified HLA-B*57:01 [3]) | peptides with a C-terminal valine presented exclusively in the presence of the drug [4] | change in HLA-B*57:01 affinity of peptides ending in C (purified HLA-B*57:01 [1]; individual peptides with C at P9 (S4 Fig)) | effect on HLA-B*57:01 binding affinity for three 9-mer peptides with a C-terminal valine (purified HLA-B*57:01 [1]; screen of seven drugs, one experimental run in quadruplicates (S3 Fig)) | increase in the level of bound peptide KAAKYRVSV on HLA-B*57:01 (HLA-B*57:01; radiolabeled KAAKYRVSV) | effect of drug on binding of KAAKYRVSV to HLA-B*58:01 (HLA-B*58:01; radiolabeled KAAKYRVSV) | unique peptide sequences identified from the drug treated sample only ([5]; acyclovir 500 μg/mL, 14 hr, 37°, excludes 91 sequences present in both samples) | number of eluted peptides with a C-terminal isoleucine in the presence of the drug ([5]; acyclovir 500 μg/mL, 14 hr, includes three peptides present in both samples, vs four in untreated, p = 0.073) | Number of peptides that do not have isoleucine at C terminus (Treated) ([5]; acyclovir treated cells, peptides found in both treated and untreated samples not included) | Number of peptides that have isoleucine at C terminus (Treated) ([5]; acyclovir treated cells, peptides found in both treated and untreated samples not included, one-sided Fisher's exact test p = 0.0726) | IC50 (purified HLA-B*57:01 [1]; 0.5 mg/mL acyclovir, p < 0.01 vs vehicle, read-out: IC-50 for HLA-B*57:01, 0.5 mg/mL acyclovir) | IC50 (purified HLA-B*57:01 [1]; vehicle, read-out: IC-50 for HLA-B*57:01, vehicle)
Nc1nc(NC2CC2)c2ncn([C@H]3C=C[C@@H](CO)C3)c2n1 [abacavir, Abacavir sulfate] | all seven | ≤ 1000 fold and 1,000 fold | up to 5 fold | unaffected | expanded population of CD8 positive / IFN-γ positive T-cells | 10 fold | 15 |  |  |  |  |  |  |  |  |  | 
Nc1nc2c(ncn2COCCO)c(=O)[nH]1 [acyclovir] | two |  |  |  | could not detect any acyclovir specific response |  |  | None of the peptides ending in C showed any change | small but consistent increase | 2 fold | unaffected | 169 | twelve | 160 | 9 |  | 
RARQLNYTI |  |  |  |  |  |  |  |  |  |  |  |  |  |  |  | 7.1 ± 1 nM | 13.7 ± 1.3 nM
